Patent US20110034427A1, “Anti-aging properties of quercetin, 18alpha-glycyrrhetinic acid and hederagenin and their derivatives” (priority 2009, published 2011)
“Also recorded” adds a separate entry of the source.

Tests used:
HFL-1 HDFs [1] = assay: Levels of oxidized proteins (OxyBlot analysis); assay type: cell-based, human; settings: HFL-1, 24 h treatment; vs control
Procedure: 4.1. HFL-1 HDFs were cultured as described in 1.1-1.4. Cells treated with the substances for 24 h and were then lysed and proteins were extracted and subjected to SDS-PAGE (sodium dodecylsulfate polyacrylamide gel electrophorese) followed by OxyBlot analysis that detects the carbonylated groups on proteins. OxyBlot™ is a protein oxidation detection kit.
4.2. […] However it is worth mentioning that OxyBlot analysis detects only carbonylated groups on proteins which is just one oxidative stress-mediated post-translational protein modification.

HFL-1 HDFs [2] = assay: Cellular survival with or without oxidative stress; assay type: cell-based, human; settings: for survival to an oxidative stress challenge (conclusion): vs control cells
Procedure: 6.1. HFL-1 HDFs were cultured as described in 5.1. Following the incubation with the various substances cells were collected and counted using a Coulter Z2® counter (Coulter Corporation). In replica cultures, culture medium supplemented with the substances as described above were also supplemented with 300 μM H2O2 for 2.5 h. The cells were then thoroughly washed with PBS, supplemented with complete medium containing the examined substances and maintained in culture for additional 24 h. They were then collected and counted using a Coulter Z2® counter (Coulter Corporation).

tyrosinase = assay: Tyrosinase expression (immunoblot); assay type: cell-based, mouse; settings: for protein expression levels of tyrosinase (conclusion): concentration not given; for protein levels of tyrosinase (FIG. 11): mouse melanocytes, 72 h
Procedure: B.1. Mouse melanocytes were cultured as described in A.1.-A.3. After 72 h of treatment, the cells were collected, lysed and proteins were extracted and subjected to SDS-PAGE followed by immunoblot analysis against tyrosinase. Protein concentrations were determined using the Bradford method with BSA as a standard.

[3] = system: proteasome subunits (β5, α7); assay: Levels of proteasome subunits (immunoblot); assay type: cell-based, human; settings: HFL-1, 24 h treatment
Procedure: 8.1. HFL-1 HDFs were cultured as described in 5.1. Following the incubation with the various substances for 24 h, cells were collected, lysed and proteins were extracted and subjected to SDS-PAGE followed by immunoblot analysis against different proteasome subunits. Protein concentrations were determined using the Bradford method with BSA as a standard.
8.2. […] In total, the increased amount of proteasome subunits expression levels provide an explanation regarding the increased proteasome activities recorded in these cells.

[4] = system: HFL-1 human diploid fibroblasts; assay: Lifespan (cumulative population doublings) and morphology of human diploid fibroblasts under continuous treatment; assay type: cell-based; settings: for appearance of the senescent phenotype (conclusion): continuous treatment, morphology, shape, β-galactosidase positive cells
Procedure: 1.1. HFL-1 human diploid fibroblasts (HDFs) were used in in vitro conditions (growth at 37° C., 5% CO2 and 95% humidity).
1.2. The cells were maintained in Dulbecco's modified Eagle's medium (DMEM®; Invitrogen Life Technologies Inc.) supplemented with 10% (v/v) fetal calf serum, 100 Units/ma penicillin, 100 μg/ml strepromycin, 2 mM glutamine and 1% (v/v) non-essential amino acids (complete medium).
1.3. The cells were constantly cultured in culture medium supplemented with the substances [final concentration for quercetin (QUER), 18α-glycyrrhetinic acid (18α GA), and hederagenin (HED): 2 μg/ml and for quercetin caprylate (QU-CAP) three concentrations were applied: 0.5, 2 and 5 μg/ml]. Quercetin, 18α-glycyrrhetinic acid and hederagenin were diluted in DMSO (dimethyl sulfoxide) whereas quercetin caprylate was diluted in caprilic/capric triglycerides (CAP). Therefore, the control cultures were incubated in medium supplemented with 0.1% DMSO or 0.1% CAP.
1.4. The cells were replenished with fresh media supplemented with the substances or the diluents every 24 h and their numbers were examined using a Coulter Z2® counter (Coulter Corporation) until they reached senescence (approximately after 13 weeks). The cumulative population doublings performed by each culture were calculated using the following formula: CPD=Σ[PD] where PD=LOG [Nfinal/Ninitial]/LOG [2], where N final represents the number of cells that were measured when each culture reached confluence and N initial represents the number of cells that was initially seeded.
1.5. Photographs of the cells maintained in cell culture and treated with the various substances for the same time period were taken.
1.6. […] More specifically, cells that were incubated with quercetin caprylate gave up to 2.8% more population doublings as compared to the population doublings performed by the relative control cultures. Cells that were incubated with the other substances gave up to 2.9% more population doublings as compared to their relative control cultures.
1.7. […] Cells that were treated with either of the tested substances maintained the young morphology for longer as compared to the control cultures (DMSO-treated and CAP-treated).

[5] = system: Mouse melanocytes (B10F16 cell line); assay: Cellular whitening of melanocytes (cell pellet); assay type: cell-based; settings: for whitening of melanocytes (conclusion): concentration not given; for whitening of melanocyte pellet (FIG. 10): 72 h
Procedure: A.1. Mouse melanocytes (B10F16 cell line) were used in in vitro conditions (growth at 37° C., 5% CO2 and 95% humidity).
A.2. The cells were maintained in Dulbecco's modified Eagle's medium (DMEM®; Invitrogen Life Technologies Inc.) supplemented with 10% (v/v) fetal calf serum, 100 Units/ma penicillin, 100 μg/ml strepromycin, 2 mM glutamine and 1% (v/v) non-essential amino acids (complete medium).
A.3. 10^5 cells were seeded in petri dishes and the following day they were fed with medium supplemented with the substances [final concentration for all substances: 5 μg/ml and 10 μg/ml]. Quercetin (QUER), 18α-glycyrrhetinic acid (18α GA) and hederagenin (HED) were diluted in DMSO whereas quercetin caprylate was diluted in caprilic/capric triglycerides (CAP). Therefore, the control cultures were incubated in medium supplemented with 0.1% DMSO or 0.1% CAP. The media were replenished every 24 h and the cells were kept under these conditions constantly for 72 h. Cells were then collected and pelleted and the cell pellet was photographed.
A.4. […] The result was positively correlated to the concentration of quercetin used.

[6] = system: middle aged and terminally senescent HFL-1 HDFs; assay: Reversal of senescent phenotype in middle aged and terminally senescent cells; assay type: cell-based, human; settings: for proliferation of middle aged cells (FIG. 3A): middle aged HFL-1 (cpd 59), QUER, 18α GA 2 μg/ml, QU-CAP 0.5, 2 and 5 μg/ml; for proliferation of middle aged cells (FIG. 3A) / proliferation of terminally senescent cells (FIG. 3B): 1 week; for morphology of middle aged cells (FIG. 4A) / β-galactosidase activity staining of middle aged cells (FIG. 4A): middle aged HFL-1, 1 week; for β-galactosidase activity staining of middle aged cells (FIG. 4A): QU-CAP all three concentrations; for reversal of the senescent phenotype / rejuvenation effect (conclusion): middle aged cells or terminally senescent cells; for proliferation of terminally senescent cells (FIG. 3B): terminally senescent HFL-1 (cpd 65), QUER 2 μg/ml, QU-CAP 2 and 5 μg/ml; for morphology of terminally senescent cells (FIG. 4B) / β-galactosidase activity of terminally senescent cells (FIG. 4B): terminally senescent HFL-1, 1 week, QU-CAP higher concentrations
Procedure: 3.1. HFL-1 HDFs that have senesced in vitro were used (growth at 37° C., 5% CO2 and 95% humidity). More specifically, middle aged HFL-1 HDFs (cpd 59) and terminally senescent HFL-1 HDFs (cpd 65) that had senesced in the absence of any substance were used.
3.2. The cells were seeded and maintained in complete medium (see 1.2). Culture medium supplemented with the substances [final concentration for quercetin (QUER), 18α-glycyrrhetinic acid (18α GA), and hederagenin (HED): 2 μg/ml and for quercetin caprylate (QU-CAP) three concentrations were applied: 0.5, 2 and 5 μg/ml] or the diluents (0.1% DMSO or 0.1% CAP) were added 24 h later. The cells were replenished with fresh media supplemented with the substances or the diluents every 24 h for 1 week and their numbers were then examined using a Coulter Z2® counter (Coulter Corporation).
3.3. Detection of β-galactosidase activity was performed in these cells as described above and photographs of the cells following β-galactosidase activity assay were taken.

| protein levels of tyrosinase (FIG. 11) (tyrosinase; high concentration) | Compound | levels of oxidized (carbonylated) proteins (FIG. 5) (HFL-1 HDFs [1]) | higher survival rate after oxidative stress as compared to control cultures (HFL-1 HDFs [2]; 300 μM H2O2 for 2.5 h, then additional 24 h in culture) [%] | higher survival rate as compared to diluent-treated cells (HFL-1 HDFs [2]; 24 h treatment, without oxidative stress) [%] | survival to an oxidative stress challenge (conclusion) (HFL-1 HDFs [2]) | protein expression levels of tyrosinase (conclusion) (tyrosinase) | protein levels of proteasome subunits β5 and α7 (FIG. 9) [3] | appearance of the senescent phenotype (conclusion) [4] | whitening of melanocytes (conclusion) [5] | whitening of melanocyte pellet (FIG. 10) ([5]; lower concentration (5 μg/ml)) | proliferation of middle aged cells (FIG. 3A) [6] | morphology of middle aged cells (FIG. 4A) [6] | β-galactosidase activity staining of middle aged cells (FIG. 4A) [6] | reversal of the senescent phenotype / rejuvenation effect (conclusion) [6] | protein levels of tyrosinase (FIG. 11) (tyrosinase; 5 and 10 μg/ml) | whitening of melanocyte pellet (FIG. 10) ([5]; both concentrations (5 and 10 μg/ml)) | proliferation of terminally senescent cells (FIG. 3B) [6] | morphology of terminally senescent cells (FIG. 4B) [6] | β-galactosidase activity of terminally senescent cells (FIG. 4B) [6] | more population doublings as compared to the relative control cultures ([4]; HFL-1, continuous treatment about 13 weeks, QU-CAP 0.5, 2 and 5 μg/ml, others 2 μg/ml, vs 0.1% DMSO or 0.1% CAP) |
| --- | --- | --- | --- | --- | --- | --- | --- | --- | --- | --- | --- | --- | --- | --- | --- | --- | --- | --- | --- | --- |
|  | CC1(C)[C@@H](O)CC[C@]2(C)[C@H]3C(=O)C=C4[C@H]5C[C@@](C)(C(=O)O)CC[C@]5(C)CC[C@@]4(C)[C@]3(C)CC[C@@H]12 [18α-glycyrrhetinic acid] | lower amounts of oxidized proteins; also recorded: slightly lower levels | 2 | 3.5 | survived better | decrease of the protein expression levels of tyrosinase | similar | delay in the appearance of the senescent phenotype | revealed whitening potential | revealed whitening potential | higher proliferation rates | acquired a morphology more similar to the one exhibited by young cells | less positive to β-galactosidase activity staining | regained a younger morphology and were induced to limited but significant proliferation |  |  |  |  |  |  |
| reduced protein levels of tyrosinase | CC1(C)CC[C@]2(C(=O)O)CC[C@]3(C)C(=CC[C@@H]4[C@@]5(C)CC[C@H](O)[C@@](C)(CO)[C@@H]5CC[C@]43C)[C@@H]2C1 [hederagenin, Hederagenin] |  |  |  |  | decrease of the protein expression levels of tyrosinase | did not detect any up-regulation |  | revealed whitening potential | revealed whitening potential |  |  |  |  |  |  |  |  |  |  |
|  | O=c1c(O)c(-c2ccc(O)c(O)c2)oc2cc(O)cc(O)c12 [quercetin, Quercetin] |  |  |  | survived better | decrease of the protein expression levels of tyrosinase | elevated protein levels | delay in the appearance of the senescent phenotype | revealed whitening potential |  | higher proliferation rates | acquired a morphology more similar to the one exhibited by young cells | less positive to β-galactosidase activity staining | regained a younger morphology and were induced to limited but significant proliferation | reduced protein levels of tyrosinase | revealed whitening potential | limited but significant cell proliferation | acquired a morphology that exhibits more similarities with the morphology of young fibroblasts | many of those cells were negative for β-galactosidase activity |  |
|  | Quercetin caprylate | lower amounts of oxidized proteins; also recorded: less oxidized proteins |  |  | survived better |  | elevated protein levels | delay in the appearance of the senescent phenotype |  |  | higher proliferation rates | acquired a morphology more similar to the one exhibited by young cells | less positive to β-galactosidase activity staining | regained a younger morphology and were induced to limited but significant proliferation | reduced protein levels of tyrosinase |  | limited but significant cell proliferation | acquired a morphology that exhibits more similarities with the morphology of young fibroblasts | many of those cells were negative for β-galactosidase activity | up to 2.8% |
